What follows are compounds tested on rabbit skeletal myofibrils (fast skeletal myofibrils) (assay: Activation of fast skeletal myofibrils (PUMA assay, AC1.4)). Details: calcium at pCa25, AC1.4 = concentration at which the compound increased the enzymatic activity.
Assay type: biochemical
Procedure, shortened: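 In 12 mM PIPES pH 6.8 with 2 mM MgCl2 and 1 mM DTT, Triton-washed rabbit skeletal myofibrils were run at the pCa25 calcium level. Myosin-made ADP was recycled through a PK/LDH coupled system; NADH loss read at 340 nm.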

Compared with CC[C@H](C)[C@H]1C(=O)Nc2ccccc2CN1C(=O)NCc1cncn1C [Compound 214, (S)-3-((S)-sec-butyl)-N-((1-methyl-1H-imidazol-5-yl)methyl)-2-oxo-1,2,3,5-tetrahydro-4H-benzo[e][1,4]diazepine-4-carboxamide], CC[C@H](C)[C@H]1C(=O)Nc2ccccc2CN1C(=O)NCCS(C)(=O)=O [Compound 220, (S)-3-((S)-sec-butyl)-N-(2-(methylsulfonyl)ethyl)-2-oxo-1,2,3,5-tetrahydro-4H-benzo[e][1,4]diazepine-4-carboxamide] is 1.8-fold higher in AC1.4: 1.72 µM for the first, 3.01 µM for the second.

Compared with CC[C@H](C)[C@H]1C(=O)Nc2ccccc2CN1C(=O)NC[C@H]1CCC(=O)N1 [Compound 215, (S)-3-((S)-sec-butyl)-2-oxo-N-(((R)-5-oxopyrrolidin-2-yl)methyl)-1,2,3,5-tetrahydro-4H-benzo[e][1,4]diazepine-4-carboxamide], CC[C@H](C)[C@H]1C(=O)Nc2ccccc2CN1C(=O)N[C@@H]1CCC(=O)NC1 [Compound 218, (S)-3-((S)-sec-butyl)-2-oxo-N-((R)-6-oxopiperidin-3-yl)-1,2,3,5-tetrahydro-4H-benzo[e][1,4]diazepine-4-carboxamide] is 5.3-fold lower in AC1.4: 4.65 µM for the first, 0.88 µM for the second.

CC[C@H](C)[C@H]1C(=O)Nc2ccccc2CN1C(=O)N[C@H]1CCCNC1=O [Compound 216, (S)-3-((S)-sec-butyl)-2-oxo-N-((S)-2-oxopiperidin-3-yl)-1,2,3,5-tetrahydro-4H-benzo[e][1,4]diazepine-4-carboxamide] and CC[C@H](C)[C@H]1C(=O)Nc2ccccc2CN1C(=O)N[C@@H]1CCCNC1=O [Compound 217, (S)-3-((S)-sec-butyl)-2-oxo-N-((R)-2-oxopiperidin-3-yl)-1,2,3,5-tetrahydro-4H-benzo[e][1,4]diazepine-4-carboxamide] are within 1.5-fold of each other in AC1.4: 2.64 µM for the first, 2.45 µM for the second.

CC[C@H](C)[C@H]1C(=O)Nc2ccccc2CN1C(=O)N[C@H]1CCC(=O)NC1 [Compound 219, (S)-3-((S)-sec-butyl)-2-oxo-N-((S)-6-oxopiperidin-3-yl)-1,2,3,5-tetrahydro-4H-benzo[e][1,4]diazepine-4-carboxamide] and CC[C@H](C)[C@H]1C(=O)Nc2ccccc2CN1C(=O)NC1CCS(=O)(=O)C1 (stereo partly drawn) [Compound 224, (3S)-3-((S)-sec-butyl)-N-(1,1-dioxoidotetrahydrothiophen-3-yl)-2-oxo-1,2,3,5-tetrahydro-4H-benzo[e][1,4]diazepine-4-carboxamide] are within 1.5-fold of each other in AC1.4: 2.10 µM for the first, 2.85 µM for the second.

Going from CC[C@H](C)[C@H]1C(=O)Nc2ccccc2CN1C(=O)NCCS(N)(=O)=O [Compound 221, (S)-3-((S)-sec-butyl)-2-oxo-N-(2-sulfamoylethyl)-1,2,3,5-tetrahydro-4H-benzo[e][1,4]diazepine-4-carboxamide] to CC[C@H](C)[C@H]1C(=O)Nc2ccccc2CN1C(=O)N(C)CCS(C)(=O)=O [Compound 240, (S)-3-((S)-sec-butyl)-N-methyl-N-(2-(methylsulfonyl)ethyl)-2-oxo-1,2,3,5-tetrahydro-4H-benzo[e][1,4]diazepine-4-carboxamide], the AC1.4 rises from 1.80 µM to 2.87 µM (1.6-fold).

CC[C@H](C)[C@H]1C(=O)Nc2ccccc2CN1C(=O)NCCN1CC[C@@H](O)C1 [Compound 222, (S)-3-((S)-sec-butyl)-N-(2-((R)-3-hydroxypyrrolidin-1-yl)ethyl)-2-oxo-1,2,3,5-tetrahydro-4H-benzo[e][1,4]diazepine-4-carboxamide] and CC[C@H](C)[C@H]1C(=O)Nc2ccccc2CN1C(=O)NCCN1CC[C@H](O)C1 [Compound 223, (S)-3-((S)-sec-butyl)-N-(2-((S)-3-hydroxypyrrolidin-1-yl)ethyl)-2-oxo-1,2,3,5-tetrahydro-4H-benzo[e][1,4]diazepine-4-carboxamide] are within 1.5-fold of each other in AC1.4: 2.02 µM for the first, 1.43 µM for the second.

First: CC[C@H](C)[C@H]1C(=O)Nc2ccccc2CN1C(=O)N(C)CCO [Compound 225, (S)-3-((S)-sec-butyl)-N-(2-hydroxyethyl)-N-methyl-2-oxo-1,2,3,5-tetrahydro-4H-benzo[e][1,4]diazepine-4-carboxamide]
Second: CC[C@H](C)[C@H]1C(=O)Nc2ccccc2CN1C(=O)N(C)CC(N)=O [Compound 228, (S)-N-(2-amino-2-oxoethyl)-3-((S)-sec-butyl)-N-methyl-2-oxo-1,2,3,5-tetrahydro-4H-benzo[e][1,4]diazepine-4-carboxamide]
The AC1.4 of the first is 2.3-fold lower: 1.67 µM for the first, 3.76 µM for the second.

CC[C@H](C)[C@H]1C(=O)Nc2ccccc2CN1C(=O)N1CCNCC1 [Compound 226, (S)-3-((S)-sec-butyl)-4-(piperazine-1-carbonyl)-1,3,4,5-tetrahydro-2H-benzo[e][1,4]diazepin-2-one] and CC[C@H](C)[C@H]1C(=O)Nc2ccccc2CN1C(=O)N1CCN[C@@H](C)C1 [Compound 231, (S)-3-((S)-sec-butyl)-4-((S)-3-methylpiperazine-1-carbonyl)-1,3,4,5-tetrahydro-2H-benzo[e][1,4]diazepin-2-one] are within 1.5-fold of each other in AC1.4: 3.91 µM for the first, 4.86 µM for the second.

First: CC[C@H](C)[C@H]1C(=O)Nc2ccccc2CN1C(=O)N1CCC(O)C1 (stereo partly drawn) [Compound 227, (3S)-3-((S)-sec-butyl)-4-(3-hydroxypyrrolidine-1-carbonyl)-1,3,4,5-tetrahydro-2H-benzo[e][1,4]diazepin-2-one]
Second: CC[C@H](C)[C@H]1C(=O)Nc2ccccc2CN1C(=O)N1CCC(N(C)C)C1 (stereo partly drawn) [Compound 234, (3S)-3-((S)-sec-butyl)-4-(3-(dimethylamino)pyrrolidine-1-carbonyl)-1,3,4,5-tetrahydro-2H-benzo[e][1,4]diazepin-2-one]
The AC1.4 of the first is 2-fold lower: 2.29 µM for the first, 4.64 µM for the second.

CC[C@H](C)[C@H]1C(=O)Nc2ccccc2CN1C(=O)N1CCNC(=O)C1 [Compound 229, (S)-3-((S)-sec-butyl)-4-(3-oxopiperazine-1-carbonyl)-1,3,4,5-tetrahydro-2H-benzo[e][1,4]diazepin-2-one] and CC[C@H](C)[C@H]1C(=O)Nc2ccccc2CN1C(=O)N1CCC2(CC1)CNC(=O)C2 [Compound 245, (S)-3-((S)-sec-butyl)-4-(3-oxo-2,8-diazaspiro[4.5]decane-8-carbonyl)-1,3,4,5-tetrahydro-2H-benzo[e][1,4]diazepin-2-one] are within 1.5-fold of each other in AC1.4: 3.74 µM for the first, 3.88 µM for the second.

CC[C@H](C)[C@H]1C(=O)Nc2ccccc2CN1C(=O)N1CCN(C)CC1 [Compound 230, (S)-3-((S)-sec-butyl)-4-(4-methylpiperazine-1-carbonyl)-1,3,4,5-tetrahydro-2H-benzo[e][1,4]diazepin-2-one] and CC[C@H](C)[C@H]1C(=O)Nc2ccccc2CN1C(=O)N1CCN(C(=O)OC)CC1 [Compound 243, methyl 4-((S)-3-((S)-sec-butyl)-2-oxo-2,3,4,5-tetrahydro-1H-benzo[e][1,4]diazepine-4-carbonyl)piperazine-1-carboxylate] are within 1.5-fold of each other in AC1.4: 1.31 µM for the first, 1.93 µM for the second.

CC[C@H](C)[C@H]1C(=O)Nc2ccccc2CN1C(=O)N[C@@H](C)C(=O)NC [Compound 232, (S)-3-((S)-sec-butyl)-N-((S)-1-(methylamino)-1-oxopropan-2-yl)-2-oxo-1,2,3,5-tetrahydro-4H-benzo[e][1,4]diazepine-4-carboxamide] and CC[C@H](C)[C@H]1C(=O)Nc2ccccc2CN1C(=O)N1CCC(N(C)C(C)=O)C1 (stereo partly drawn) [Compound 242, N-(1-((S)-3-((S)-sec-butyl)-2-oxo-2,3,4,5-tetrahydro-1H-benzo[e][1,4]diazepine-4-carbonyl)pyrrolidin-3-yl)-N-methylacetamide] are within 1.5-fold of each other in AC1.4: 3.47 µM for the first, 4.30 µM for the second.

CC[C@H](C)[C@H]1C(=O)Nc2ccccc2CN1C(=O)N(C)c1cnccn1 [Compound 233, (S)-3-((S)-sec-butyl)-N-methyl-2-oxo-N-(pyrazin-2-yl)-1,2,3,5-tetrahydro-4H-benzo[e][1,4]diazepine-4-carboxamide] and CC[C@H](C)[C@H]1C(=O)Nc2ccccc2CN1C(=O)N(C)Cc1coc(C)n1 [Compound 237, (S)-3-((S)-sec-butyl)-N-methyl-N-((2-methyloxazol-4-yl)methyl)-2-oxo-1,2,3,5-tetrahydro-4H-benzo[e][1,4]diazepine-4-carboxamide] are within 1.5-fold of each other in AC1.4: 2.16 µM for the first, 1.86 µM for the second.

CC[C@H](C)[C@H]1C(=O)Nc2ccccc2CN1C(=O)N(C)C1CCN(C)C1 (stereo partly drawn) [Compound 235, (3S)-3-((S)-sec-butyl)-N-methyl-N-(1-methylpyrrolidin-3-yl)-2-oxo-1,2,3,5-tetrahydro-4H-benzo[e][1,4]diazepine-4-carboxamide] and CC[C@H](C)[C@H]1C(=O)Nc2ccccc2CN1C(=O)N1CCC(N(C)C)CC1 [Compound 239, (S)-3-((S)-sec-butyl)-4-(4-(dimethylamino)piperidine-1-carbonyl)-1,3,4,5-tetrahydro-2H-benzo[e][1,4]diazepin-2-one] are within 1.5-fold of each other in AC1.4: 1.45 µM for the first, 1.65 µM for the second.

CC[C@H](C)[C@H]1C(=O)Nc2ccccc2CN1C(=O)N1CCC[C@H]1C(=O)O [Compound 236, ((S)-3-((S)-sec-butyl)-2-oxo-2,3,4,5-tetrahydro-1H-benzo[e][1,4]diazepine-4-carbonyl)-L-proline] and CC[C@H](C)[C@H]1C(=O)Nc2ccccc2CN1C(=O)N1CCCC(C(N)=O)C1 (stereo partly drawn) [Compound 238, 1-((S)-3-((S)-sec-butyl)-2-oxo-2,3,4,5-tetrahydro-1H-benzo[e][1,4]diazepine-4-carbonyl)piperidine-3-carboxamide] are within 1.5-fold of each other in AC1.4: 3.43 µM for the first, 4.49 µM for the second.

Going from CC[C@H](C)[C@H]1C(=O)Nc2ccccc2CN1C(=O)N1CCCn2c(C)nnc21 [Compound 241, (S)-3-((S)-sec-butyl)-4-(3-methyl-5,6,7,8-tetrahydro-[1,2,4]triazolo[4,3-a]pyrimidine-8-carbonyl)-1,3,4,5-tetrahydro-2H-benzo[e][1,4]diazepin-2-one] to CC[C@H](C)[C@H]1C(=O)Nc2ccccc2CN1C(=O)N1CCCC1c1nc(C)no1 (stereo partly drawn) [Compound 244, (3S)-3-((S)-sec-butyl)-4-(2-(3-methyl-1,2,4-oxadiazol-5-yl)pyrrolidine-1-carbonyl)-1,3,4,5-tetrahydro-2H-benzo[e][1,4]diazepin-2-one], the AC1.4 rises from 1.35 µM to 2.43 µM (1.8-fold).

Source: patent US12441691B2 (Cytokinetics, Inc., priority 2020, dated 2025)
